Experimental data reported in ChEMBL document CHEMBL1158470, “9-(Arenethenyl)purines as dual Src/Abl kinase inhibitors targeting the inactive conformation: design, synthesis, and biological evaluation” (J Med Chem, 2009).
Calls of active or inactive are those of the source. No cut-off for these calls is given here.

What was measured:
[1] = Clearance in CD rat at 5 mg/kg, iv; assay type: ADME, organism-based; design: dose 5 mg/kg, route intravenous; settings: in vivo
K562 = assay: Antiproliferative activity against human K562 cells after 3 days by MTS assay
[2] = Volume of distribution in CD rat at 5 mg/kg, iv; assay type: ADME, organism-based; design: dose 5 mg/kg, route intravenous; settings: in vivo
[3] = Half life in CD rat at 5 mg/kg, iv; assay type: ADME, organism-based; design: dose 5 mg/kg, route intravenous; settings: in vivo
[4] = Antiproliferative activity against mouse BA/F3 cells after 3 days by MTS assay
[5] = Antiproliferative activity against mouse BA/F3 cells expressing wild type Bcr-Abl after 3 days by MTS assay
[6] = molecular target: Proto-oncogene tyrosine-protein kinase Src (Homo sapiens, UniProt P12931)
Description: Inhibition of human Src kinase by TR-FRET assay

[7] = molecular target: Tyrosine-protein kinase ABL1 (Homo sapiens, UniProt P00519)
Description: Inhibition of wild type human Abl kinase by TR-FRET assay

[8] = Antitumor activity against mouse BA/F3 cells expressing wild type Bcr-Abl xenografted in CB17 SCID mouse assessed as increase in mouse survival at 10 mg/kg, po administered on day 3 once daily for 19 days; assay type: functional; settings: BaF3
[9] = Cmax in mouse at 10 mg/kg, po; assay type: ADME, organism-based; design: dose 10 mg/kg, route oral; settings: in vivo
[10] = Oral bioavailability in mouse at 10 mg/kg; assay type: ADME, organism-based; settings: in vivo
[11] = Tmax in CD rat at 15 mg/kg, po; assay type: ADME, organism-based; design: dose 15 mg/kg, route oral; settings: in vivo
[12] = Tmax in mouse at 10 mg/kg, po; assay type: ADME, organism-based; design: dose 10 mg/kg, route oral; settings: in vivo
[13] = AUC (0 to 24 hrs) in mouse at 10 mg/kg, po; assay type: ADME, organism-based; design: time < 24 hr, dose 10 mg/kg, route oral; settings: plasma
[14] = Antiproliferative activity against mouse BA/F3 cells expressing Bcr-Abl T315I mutant after 3 days by MTS assay; settings: BaF3, 72 h
[15] = Cmax in CD rat at 15 mg/kg, po; assay type: ADME, organism-based; design: dose 15 mg/kg, route oral; settings: in vivo
[16] = Oral bioavailability in CD rat at 15 mg/kg; assay type: ADME, organism-based; settings: in vivo
NIH3T3 [17] = assay: Antitumor activity against in po dosed mouse NIH/3T3 cells expressing Src Y527F mutant xenografted in CD1 nude mouse assessed as tumor shrinkage administered daily for 21 days; assay type: functional, organism-based
[18] = AUC (0 to 24 hrs) in CD rat at 15 mg/kg, po; assay type: ADME, organism-based; design: time < 24 hr, dose 15 mg/kg, route oral; settings: plasma
NIH3T3 [19] = assay: Antitumor activity against in mouse NIH/3T3 cells expressing Src Y527F mutant xenografted in CD1 nude mouse assessed as complete tumor regression at 100 mg/kg, po administered daily for 21 days; assay type: functional, organism-based; design: dose 100 mg/kg
[20] = Antitumor activity against mouse BA/F3 cells expressing wild type Bcr-Abl xenografted in CB17 SCID mouse assessed as median survival time at 10 mg/kg, po administered on day 3 once daily for 19 days; assay type: functional, BaF3
BaF3 [21] = assay: Antitumor activity against mouse BA/F3 cells expressing wild type Bcr-Abl xenografted in CB17 SCID mouse assessed as increase in mouse survival at 75 mg/kg, po administered on day 3 once daily for 19 days relative to control; assay type: functional, organism-based; design: dose 75 mg/kg
BaF3 [22] = assay: Antitumor activity against mouse BA/F3 cells expressing wild type Bcr-Abl xenografted in CB17 SCID mouse assessed as median survival time at 75 mg/kg, po administered on day 3 once daily for 19 days relative to control; assay type: functional, organism-based; design: dose 75 mg/kg
[23] = Antiproliferative activity against mouse BA/F3 cells expressing Bcr-Abl L248R mutant after 3 days by MTS assay; settings: BaF3, 72 h
[24] = Antiproliferative activity against mouse BA/F3 cells expressing Bcr-Abl Y253H mutant after 3 days by MTS assay; settings: BaF3, 72 h
[25] = Antiproliferative activity against mouse BA/F3 cells expressing Bcr-Abl E255K mutant after 3 days by MTS assay; settings: BaF3, 72 h
[26] = Antiproliferative activity against mouse BA/F3 cells expressing Bcr-Abl Q252H mutant after 3 days by MTS assay; settings: BaF3, 72 h
[27] = Antiproliferative activity against mouse BA/F3 cells expressing Bcr-Abl G250E mutant after 3 days by MTS assay; settings: BaF3, 72 h

Sequence of Tyrosine-protein kinase ABL1 (P00519 whole entry): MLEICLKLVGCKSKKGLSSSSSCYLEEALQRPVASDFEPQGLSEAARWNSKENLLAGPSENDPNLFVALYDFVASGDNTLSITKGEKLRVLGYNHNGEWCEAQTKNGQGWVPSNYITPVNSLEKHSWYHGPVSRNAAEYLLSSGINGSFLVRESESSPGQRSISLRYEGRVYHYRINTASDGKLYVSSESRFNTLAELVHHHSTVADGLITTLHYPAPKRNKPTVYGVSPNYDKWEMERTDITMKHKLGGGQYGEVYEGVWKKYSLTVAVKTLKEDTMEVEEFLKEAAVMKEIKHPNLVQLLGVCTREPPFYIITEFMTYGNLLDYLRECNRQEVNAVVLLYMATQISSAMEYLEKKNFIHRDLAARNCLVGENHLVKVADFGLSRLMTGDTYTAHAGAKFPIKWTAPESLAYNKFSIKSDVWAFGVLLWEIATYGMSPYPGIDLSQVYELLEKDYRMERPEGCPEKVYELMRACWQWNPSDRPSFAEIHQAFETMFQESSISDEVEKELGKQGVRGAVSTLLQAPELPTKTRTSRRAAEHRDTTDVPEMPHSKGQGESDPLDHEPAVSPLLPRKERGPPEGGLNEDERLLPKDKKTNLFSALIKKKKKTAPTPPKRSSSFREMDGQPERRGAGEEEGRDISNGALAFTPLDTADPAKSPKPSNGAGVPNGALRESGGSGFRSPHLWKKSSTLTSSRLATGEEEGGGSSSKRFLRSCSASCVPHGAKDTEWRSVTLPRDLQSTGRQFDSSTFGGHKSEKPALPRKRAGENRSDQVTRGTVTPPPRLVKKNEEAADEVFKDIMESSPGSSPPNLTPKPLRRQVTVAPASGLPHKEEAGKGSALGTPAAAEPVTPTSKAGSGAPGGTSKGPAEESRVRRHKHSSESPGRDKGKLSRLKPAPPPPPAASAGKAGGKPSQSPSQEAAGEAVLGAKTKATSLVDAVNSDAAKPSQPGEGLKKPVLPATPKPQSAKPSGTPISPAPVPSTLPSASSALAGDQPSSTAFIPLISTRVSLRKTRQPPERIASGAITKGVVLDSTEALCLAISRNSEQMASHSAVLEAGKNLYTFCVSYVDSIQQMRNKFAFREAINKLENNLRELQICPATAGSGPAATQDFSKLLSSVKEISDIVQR
Sequence of Proto-oncogene tyrosine-protein kinase Src (P12931 2-536 limits assumed): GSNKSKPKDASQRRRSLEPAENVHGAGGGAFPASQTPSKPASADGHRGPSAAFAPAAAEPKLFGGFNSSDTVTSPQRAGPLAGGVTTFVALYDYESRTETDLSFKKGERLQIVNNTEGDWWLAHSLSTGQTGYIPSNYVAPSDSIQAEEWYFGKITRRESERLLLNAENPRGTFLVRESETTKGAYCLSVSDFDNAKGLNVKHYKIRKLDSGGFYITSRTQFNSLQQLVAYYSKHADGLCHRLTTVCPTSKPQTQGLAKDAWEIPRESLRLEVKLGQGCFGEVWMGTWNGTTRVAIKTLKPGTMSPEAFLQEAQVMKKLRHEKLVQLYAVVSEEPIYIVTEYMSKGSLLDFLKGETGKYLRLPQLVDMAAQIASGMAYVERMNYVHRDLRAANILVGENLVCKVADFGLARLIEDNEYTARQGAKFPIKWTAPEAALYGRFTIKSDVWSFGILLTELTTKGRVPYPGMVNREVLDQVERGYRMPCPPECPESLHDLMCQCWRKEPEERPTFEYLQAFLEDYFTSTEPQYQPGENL

Structure (SMILES)	clearance [1] [mL/min/kg]	IC50 (K562; Homo sapiens, K562, 72 h) [nM]	Vd [2] [L/kg]	half-life [3] [h]	Tmax [11] [h]	Cmax [15] [ng/mL]	IC50 ([4]; Mus musculus, BaF3, 72 h) [nM]	also measured
Cc1ccc(NC(=O)c2cccc(C(F)(F)F)c2)cc1/C=C/n1cnc2c(NCCCN(C)C)ncnc21	–	–	–	–	–	–	–	IC50 ([5]; baf3): Not Active; IC50 [6]: 159 nM; IC50 (K562; k562): Not Active; IC50 ([4]; baf3): Not Active; IC50 [7]: 157 nM
Cc1ccc(C(=O)Nc2cc(C(F)(F)F)ccn2)cc1/C=C/n1cnc2c(NC3CC3)ncnc21	0.667	6.1	0.34	5.7	2	23500	4890	survival at 10 mg/kg [8]: 75%; Cmax [9]: 3100 ng/mL; bioavailability [10]: 100%; Tmax [12]: 2 h; AUC(0-t) at 24 h [13]: 21200 ng·h/mL; IC50 [14]: 2750 nM; bioavailability [16]: 116%; Activity (NIH3T3 [17]): Dose-dependent effect; AUC(0-t) at 24 h [18]: 428000 ng·h/mL; Activity (NIH3T3 [19]): Active; MST [20]: 35 days
Cc1ccc(C(=O)Nc2cc(C(C)(C)C)on2)cc1/C=C/n1cnc2c(NC3CC3)ncnc21	15	15	4.87	3.7	1	1040	> 10000	bioavailability [16]: 45%; AUC(0-t) at 24 h [18]: 7540 ng·h/mL
Cc1cn(-c2cc(NC(=O)c3ccc(C)c(Nc4nccc(-c5cccnc5)n4)c3)cc(C(F)(F)F)c2)cn1	–	–	–	–	–	–	–	Activity (BaF3 [21]): Active; Activity (BaF3 [22]): Active
Cc1cn(-c2cc(NC(=O)c3ccc(C)c(/C=C/n4cnc5c(NC6CC6)ncnc54)c3)cc(C(F)(F)F)c2)cn1	1	4.3	0.78	8.3	2	1750	6460	Cmax [9]: 1020 ng/mL; IC50 [23]: 64 nM; IC50 [24]: 44 nM; Tmax [12]: 1 h; AUC(0-t) at 24 h [13]: 6930 ng·h/mL; IC50 [25]: 24 nM; IC50 [26]: 42 nM; IC50 [14]: 422 nM; IC50 [27]: 63 nM; bioavailability [16]: 7%; AUC(0-t) at 24 h [18]: 17200 ng·h/mL
Cc1ccc(NC(=O)c2cccc(C(F)(F)F)c2)cc1/C=C/n1cnc2c(Nc3ccccn3)ncnc21	–	181	–	–	–	–	6260	IC50 [6]: 201 nM; IC50 [7]: 243 nM
Cc1cn(-c2cc(NC(=O)c3ccc(C)c(/C=C/n4cnc5cncnc54)c3)cc(C(F)(F)F)c2)cn1	–	–	–	–	–	–	–	IC50 ([5]; Mus musculus, BaF3, 72 h): 7 nM
Cc1ccc(C(=O)Nc2cc(C(F)(F)F)ccn2)cc1/C=C/n1cnc2cncnc21	–	–	–	–	–	–	–	IC50 ([5]; Mus musculus, BaF3, 72 h): 5 nM
Cc1ccc(C(=O)Nc2cc(C(C)(C)C)nn2C)cc1/C=C/n1cnc2c(NC3CC3)ncnc21	–	35	–	–	–	–	9030	IC50 [7]: 146 nM
Cc1ccc(C(=O)Nc2cc(N3CCN(C)CC3)cc(C(F)(F)F)c2)cc1/C=C/n1cnc2c(NC3CC3)ncnc21	–	14	–	–	–	–	543	–
Cc1ccc(NC(=O)c2cccc(C(F)(F)F)c2)cc1/C=C/n1cnc2c(Nc3ccncn3)ncnc21	–	62	–	–	–	–	2070	–
Cc1ccc(NC(=O)c2cccc(C(F)(F)F)c2)cc1/C=C/n1cnc2c(Nc3ccc(P(C)(C)=O)cc3)ncnc21	13.2	0.95	3.54	3.1	1	63	7600	bioavailability [16]: 0.8%; AUC(0-t) at 24 h [18]: 146 ng·h/mL
CNc1ncnc2c1ncn2CCc1cc(NC(=O)c2cccc(C(F)(F)F)c2)ccc1C	–	–	–	–	–	–	9680	IC50 [6]: 300 nM; IC50 (K562; k562): Not Active
Cc1ccc(C(=O)Nc2cc(N3CCOCC3)cc(C(F)(F)F)c2)cc1/C=C/n1cnc2c(NC3CC3)ncnc21	–	17	–	–	–	–	2520	–

The next lines start with results.

clearance [1] [mL/min/kg]	IC50 (K562; Homo sapiens, K562, 72 h) [nM]	Vd [2] [L/kg]	half-life [3] [h]	Tmax [11] [h]	Cmax [15] [ng/mL]	Structure (SMILES)	IC50 ([4]; Mus musculus, BaF3, 72 h) [nM]	also measured
6.33	67	1.6	2.95	–	–	CNc1ncnc2c1ncn2/C=C/c1cc(NC(=O)c2cccc(C(F)(F)F)c2)ccc1C	> 10000	–
–	63	–	–	–	–	Cc1ccc(C(=O)Nc2cccc(C(C)C)c2)cc1/C=C/n1cnc2c(NC3CC3)ncnc21	8320	–
–	68	–	–	–	–	Cc1ccc(C(=O)Nc2cc(C(F)(F)F)ccc2F)cc1/C=C/n1cnc2c(NC3CC3)ncnc21	7660	IC50 [7]: 236 nM
16	3.7	9.01	6.7	6	483	Cc1ccc(NC(=O)c2cccc(C(F)(F)F)c2)cc1/C=C/n1cnc2c(Nc3ccncc3)ncnc21	635	–
–	5.4	–	–	–	–	Cc1ccc(C(=O)Nc2cc(-n3ccnc3)cc(C(F)(F)F)c2)cc1/C=C/n1cnc2c(NC3CC3)ncnc21	7120	IC50 [14]: 298 nM
–	292	–	–	–	–	Cc1ccc(C(=O)Nc2ncc(C(C)(C)C)s2)cc1/C=C/n1cnc2c(NC3CC3)ncnc21	7120	IC50 [6]: 310 nM; IC50 [7]: 267 nM
–	69	–	–	–	–	Cc1ccc(C(=O)Nc2ccc(Cl)c(C(F)(F)F)c2)cc1/C=C/n1cnc2c(NC3CC3)ncnc21	2410	–
–	> 1000	–	–	–	–	Cc1ccc(NC(=O)Nc2cccc(C(F)(F)F)c2)cc1/C=C/n1cnc2c(NC3CC3)ncnc21	–	IC50 [6]: 517 nM
29.8	22	5.31	2.1	1	100	Cc1ccc(C(=O)Nc2cccc(C(C)(C)C)c2)cc1/C=C/n1cnc2c(NC3CC3)ncnc21	2550	bioavailability [16]: 3.5%; AUC(0-t) at 24 h [18]: 297 ng·h/mL
–	17	–	–	–	–	Cc1ccc(C(=O)Nc2cccc(C(F)(F)F)c2)cc1/C=C/n1cnc2c(NC3CC3)ncnc21	4350	–
3.17	95	1.08	4	1	2610	Cc1ccc(NC(=O)c2cccc(C(F)(F)F)c2)cc1/C=C/n1cnc2c(NC3CC3)ncnc21	7860	bioavailability [16]: 40%; AUC(0-t) at 24 h [18]: 32200 ng·h/mL
8.17	2.7	1.7	2.4	2	387	Cc1ccc(NC(=O)c2cccc(C(F)(F)F)c2)cc1/C=C/n1cnc2c(Nc3cccnc3)ncnc21	> 10000	IC50 ([5]; baf3): Not Active; bioavailability [16]: 11%; AUC(0-t) at 24 h [18]: 3310 ng·h/mL
